Test system: cells which co-expressed CD49c and CD90
Assay: qPCR of Sox-2 and Musashi transcripts with and without nifedipine treatment
Assay type: cell-based, human
Conditions: 5 μM nifedipine
Description: The expression of transcripts for Sox-2 and Musashi were determined using quantitative polymerase chain reaction (qPCR). Briefly, Master Cell Bank of CFUs were derived from a bone marrow aspirate and stored as frozen aliquots using the method of Example 1. An aliquot was thawed and the cells were seeded in 96 well plates at 2000 cells/well in complete media and incubated at 37° C. in an atmosphere consisting of 5% carbon dioxide, 5% oxygen and 90% nitrogen for 3 days. On the third day of culture, cells were treated with 5 μM nifedipine (an L-type calcium channel blocker). After 24 hours of treatment, RNA was isolated using the QIAGEN®RNeasy reagents and the Qiagen Biorobot 3000. An aliquot of the eluted RNA was used to synthesize cDNA. Specifically, RNA was mixed with Promega MMLV, dNTPS, decamers and RNasin and incubated at 37° C. for 1 hour, followed by heat inactivation.
For quantitative PCR, cDNA samples were combined with Applied Biosystems SYBR Green PCR Core reagents and amplicon specific primers, as described below, in a 384 well format. The 384 well plate was then transferred to the Applied Biosystems ABI Prism 7900 for qPCR analysis. The qPCR program entailed a 2 minute cycle at 50 degrees, followed by a 10 minute cycle at 95 degrees to activate the polymerase. This was then followed by 40 amplification cycles consisting of 15 seconds of melting at 95 degrees and one minute of extension/annealing at 60 degrees. Cycle threshold values were converted into relative transcript number using a standard curve then normalized using the corresponding 18s. Data are expressed as a ratio of transcript per 10^6 18s transcripts.

Q: How did the “Sox-2 expression in response to nifedipine” value (24 hours) turn out when `COC(=O)C1=C(C)NC(C)=C(C(=O)OC)C1c1ccccc1[N+](=O)[O-]` [nifedipine] was run?
A: Its value is 28 transcripts/10^6 transcripts of 18S RNA.

Q: And the “Musashi expression in response to nifedipine” value (24 hours of stimulation)?
A: The value was 0.093 transcripts/10^6 transcripts of 18S RNA.

Q: What about the “increase in Musashi expression” value (24 hours vs unstimulated) of the same compound?
A: Its value is ~17 fold.

Q: What about the “increase in Sox-2 expression” value (24 hours vs unstimulated) of the same compound?
A: Its value is ~7 fold.

From patent US9969977B2, “Cell populations which co-express CD49c and CD90” (GARNET BIOTHERAPEUTICS, priority 2002, dated 2018)
